Assays:
[1] = molecular target: T1, MBP:YUCCA6 fusion protein (Arabidopsis thaliana, UniProt Q8VZ59); test: Recombinant YUCCA6 enzyme activity (substrate-dependent NADPH oxidation); type: biochemical; conditions: tryptamine as a substrate; 0.1 mM NADPH, pH 8.0, 22° C.
T1 construct: The full-length YUCCA6 ORF was synthesized from Col-0 cDNA by PCR amplification and subcloned into the expression vector pMAL-c2; made in house; host or cells: Escherichia coli BL21
T1 sequence (Q8VZ59 1-417): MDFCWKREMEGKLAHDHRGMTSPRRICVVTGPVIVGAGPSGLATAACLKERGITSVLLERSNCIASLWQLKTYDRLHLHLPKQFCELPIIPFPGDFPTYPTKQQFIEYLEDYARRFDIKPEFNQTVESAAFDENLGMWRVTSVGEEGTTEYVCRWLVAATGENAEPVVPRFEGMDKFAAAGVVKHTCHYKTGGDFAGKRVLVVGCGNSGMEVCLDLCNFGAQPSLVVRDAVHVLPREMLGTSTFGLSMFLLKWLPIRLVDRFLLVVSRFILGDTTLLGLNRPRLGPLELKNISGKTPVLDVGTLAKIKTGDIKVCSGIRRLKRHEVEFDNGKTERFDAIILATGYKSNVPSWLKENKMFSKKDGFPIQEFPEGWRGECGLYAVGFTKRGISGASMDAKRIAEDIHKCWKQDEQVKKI
From the text: (§1) It has been reported that maltose-binding protein (MBP):YUCCA1 fusion proteins have catalytic activity to convert tryptamine to N-hydroxyl tryptamine (Zhao et al., 2001). To investigate if YUCCA6 also is involved in oxidation of tryptamine, we tested YUCCA6 activity with MBP:YUCCA6 fusion protein expressed in and purified from bacteria. It is known that FMOs oxidize NADPH by transfer of electrons to oxygen. […] The catalytic activity of YUCCA6 for oxidation of tryptamine, together with resistance of yucca6 mutants to 5-methyl-Trp, strongly implies that YUCCA6 has an important function in Trp-dependent auxin biosynthesis.
(§2) The full-length YUCCA6 ORF was synthesized from Col-0 cDNA by PCR amplification and subcloned into the expression vector pMAL-c2. […] The protein contents were measured using BIO-RAD Protein Assay (no. 500-0006), and protein was separated by SDS-PAGE.
(§3) The activities of MBP:YUCCA6 and MBP proteins were measured by determining the rates of substrate-dependent NADPH oxidation consumption. […] The rates of NADPH oxidation caused by addition of tryptamine were monitored at 340 nm for 5 minutes at 22° C. using a UV-visible spectrophotometer (model UV-1601; Shimazu). The change in absorbance per minute was converted to micromoles NADPH consumed per minute using the extinction coefficient 6,220 M^−1 cm^−1 for NADPH. […]

[2] = system: YUCCA6 gene expression; test: YUCCA6 gene expression after hormone treatment (RT-PCR); type: in vivo, Arabidopsis thaliana; conditions: RNA from 2-week old seedlings including roots
Method: (§4) YUCCA gene expression was checked by RT-PCR. RNA was prepared from 2-week old seedlings including roots. […] UBC was used as a loading control.
(§5) Arabidopsis YUCCA6 is one of 11 yucca family members. YUCCA6 belongs to the same sub-family with YUCCA2. We determined if YUCCA6 gene expression is regulated by ABA.

[3] = system: YUCCA2 gene expression; test: YUCCA2 gene expression after ABA treatment (RT-PCR); type: in vivo, Arabidopsis thaliana; conditions: RNA from 2-week old seedlings including roots
Method: as §4, §5

[4] = system: YUCCA 1 gene expression; test: YUCCA1 gene expression after ABA treatment (RT-PCR); type: in vivo, Arabidopsis thaliana; conditions: RNA from 2-week old seedlings including roots
Method: as §4, §5

[5] = system: Arabidopsis thaliana plants (wild-type, yucca6-1D, yucca6-2D); test: Resistance to the toxic Trp analog 5-methyl-Trp in MS medium; type: in vivo; conditions: MS medium containing 80 NM 5-methyl-Trp
From the text: It has been proposed that plants use […] and Trp-independent routes to synthesize auxin (Normanly et al., 1993; Müller and Weiler, 2000; Woodward and Bartel, 2005). To investigate in which pathway YUCCA6 may participate, we tested the resistance of yucca6-1D and yucca6-2D to the toxic Trp analog, 5-methyl-Trp.

[6] = substrate: NCCc1c[nH]c2ccccc12; test: Recombinant YUCCA6 enzyme activity (substrate-dependent NADPH oxidation); type: biochemical, Arabidopsis thaliana; conditions: other: tryptamine as a substrate, 0.1 mM NADPH, pH 8.0, 22° C.
From the text: as §1, §2, §3

Molecule `NCCc1c[nH]c2ccccc12` [tryptamine] has a Vmax [1] of 9.46 Nmol NADPH min^−1 mg^−1.

For `NC1(C(=O)O)CC1` [ACC, 1-aminocylopropane-1-carboxylic acid], the “regulation of YUCCA6 transcript level” value [2] was “could not regulate”.

For `CC1=CC(=O)CC(C)(C)[C@@]1(O)/C=C/C(C)=C\C(=O)O` [ABA, Abscisic Acid], the “regulation of YUCCA6 transcript level” value [2] was “down-regulated”, the “regulation of YUCCA2 gene expression” value [3] was “down-regulated” and the “regulation of YUCCA 1 gene expression” value [4] was “does not change”.

In the case of `Cc1ccc2[nH]cc(C[C@H](N)C(=O)O)c2c1` [5-methyl-Trp], the “survival and growth of wild-type plants” value ([5]; wild-type plants) is reported as “could not”, the “survival and growth of yucca6-1D plants” value ([5]; yucca6-1D) is reported as “could survive and grow” and the “survival and growth of yucca6-2D plants” value ([5]; yucca6-2D) is reported as “could survive and grow”.

B1: MBP:YUCCA6 fusion protein (Arabidopsis thaliana) (protein)
chain: T1 sequence (Q8VZ59 1-417)
notes: The full-length YUCCA6 ORF was synthesized from Col-0 cDNA by PCR amplification and subcloned into the expression vector pMAL-c2; made in house; host or cells: Escherichia coli BL21
B1 was tested, and the Km [6] was 274 µM.
